This passage reports melting point results from a melting point compilation (Tetko et al.; mined from patent text by program, amines drawn as free bases though some values may be those of a salt).

SMILES strings stand for the structures.

By melting point is commonly meant the temperature, or range, at which the solid turns liquid. Consider `CCOC(=O)N1CCN(c2cn(Cc3ccccc3)c3cc(OC)ccc3c2=O)CC1`, for which the melting point lay within 173 to 174 °C.
Under `BrCc1ccc2ocnc2c1` stands 90 to 93 °C.
In the case of `COc1cc2c(-c3cc4cccnc4[nH]3)cn(CCN3CCOCC3)c2cc1OC` it was 218 °C; in that of `CC(=CC(=O)c1cccs1)N1CCCC1`, 154 to 156 °C.
Compound `Oc1ccc(-c2nc3cc(Cl)c(O)cc3o2)cc1` displayed a melting point of 254 to 256 °C.
Under `COC[C@@H](O)[C@@H](O)[C@H](OC)[C@@H](O)C=O` stands 113 to 115 °C; under `CCCCCCCCCCCCCCOC(=O)c1cc(C(=O)OCCCCCCCCCCCCCC)cc([N+](=O)[O-])c1`, 60 to 61 °C; under `CN(C)c1nonc1-c1nc2ccccc2n1CC(=O)c1ccc(Cl)cc1`, 120 to 123 °C.
On to `CCOC(Nc1ccccc1)(OCC)c1ccnc(C(=O)c2ccc(Cl)c(Cl)c2)c1`, for which the melting point is 113 to 114 °C.
Regarding `O=C(NNC(c1ccccc1)(c1ccccc1)c1ccccc1)c1ccccc1`, the melting point was in the range of 130 to 131 °C.
In the case of `C[C@@H]1NC(=O)C[C@]1(C)O` it was 169 to 173 °C; in that of `CS(=O)(=O)CCN1C(=O)CN=C(c2ccccc2)c2cc(Cl)ccc21`, 135 to 156 °C.
`N#Cc1cncc(NCc2ccccc2)c1` showed a melting point of 131 °C.
In the case of `CCC(CC)c1nn(-c2ccc(C(F)(F)F)nn2)cc1CCCOc1c(CC(=O)O)cccc1OC` it was 81 to 82 °C; in that of `COc1ccc(-c2cc(C(F)(F)F)n(C)c2-c2ccc(OC)cc2)cc1`, 125 to 126 °C; in that of `CCCc1c(OCc2cccc(C(=O)NC(C)CCCc3cccnc3)c2)ccc(C(C)=O)c1O` (stereo not given), 115 to 118 °C.
In turn, `CCc1nn(C2CCCC2)c2c1CCn1c(-c3cccs3)nnc1-2` displayed a melting point of 126 °C.
In the case of `C=CCOC(=O)c1cccc2c1N=C(c1ccccc1Cl)CC2=O` it was 121 °C.
`COC(=O)Nc1ccc(CC(=O)Nc2cccc3c2C(=O)c2c-3n[nH]c2-c2ccc(OC)cc2)cc1`: the melting point stood at 257 °C.
Under `COc1ccccc1Sc1c(Cl)ncnc1NS(=O)(=O)c1ccc(C(C)(C)C)cc1` stands 186 °C; under `O=C(O)CCC#Cc1ccccc1Br`, 87 to 91 °C; under `Oc1ccc(N2CCN(c3nccs3)CC2)cc1`, 170 °C.
`NC(=O)C1=CCNCC1` showed a melting point of 104 to 106 °C.
In the case of `Cc1cc(NC(=O)NC(=O)c2c(Cl)cccc2Cl)nc(C)c1-c1ccccc1` it was 230 to 235 °C.
In the case of `CCCNC(=O)C1(CCCCc2ccc(N3Cc4ccccc4C3=O)cc2)c2ccccc2-c2ccccc21` it was 147 to 148 °C; in that of `CCC(C)C(=O)NC1CCC(CCN2CCN(c3nccc4c3OCC4)CC2)CC1` (racemic), 196 °C; in that of `Cc1cc(F)ccc1-c1nc(NC2CCOCC2)nc2c1ccc(=O)n2-c1c(F)cccc1F`, 231 to 232 °C.
In the case of `COC(C)(CC(=O)Nc1cccc(OC(=O)NC(C)C)c1)OC` it was 160 °C; in that of `c1ccc2c(c1)CCn1ccnc1C2=C1CCNCC1`, 287 to 289 °C.
Take `CN1CCN(Cc2ccc(Cl)cc2Cl)C(C2=NCCN2)C1` (stereo not given): the melting point was in the range of 167 to 169 °C.
Under `CCCOc1ccccc1-c1ccc(N)c(=O)[nH]1` stands 158 to 161 °C; under `N=C(N)c1ccc(C(=O)N[C@@H](Cc2ccc(O)cc2)C(=O)N2CCC(OCC(=O)O)CC2)cc1`, 88 to 90 °C.
In the case of `COc1ccc2[nH]c3c(c2c1)CC(=O)Nc1cccnc1-3` it was greater than 330 °C.
`CC(C)(C)c1nc(C(=O)c2ncc[nH]2)nc(C(C)(C)C)c1O` came in with a melting point of 217 to 220 °C.
Turning to `CCc1nnc(-c2ccc(NC=O)cc2)n1-c1ccccc1OC`, the melting point was found to be 250 °C.
